Measurements as given in US10370364B1, “Substituted chromenes for treatment of fibrosis or non-alcoholic steatohepatitis” (OSTEONEUROGEN INC., priority 2018, dated 2019).
≈ marks a conversion by molar mass, not a printed value.

Experiments:
[1] = tested on: C57BL/6 mice; experiment: Bleomycin-induced pulmonary fibrosis animal model; type: in vivo; conditions: for Mean Collagen % (histopathology collagen morphometry, left lung): Sirius red
Text: 5-week-old male C57BL/6 mice (weighed 18.2 to 20.5 g) (KOATECH, Korea) were used as experimental animals and divided into several groups, each consisting of 5 animals.
The experimental animals were housed in a housing box having a size of 369 L×156 W×132H (mm) (EU, USA, UK GL compliance) made of a polysulfone material in a SPF (Specific Pathogen Free) and BSL (Bio Safety Level) 2 grade facility. The number of animals in each housing box was 2 to 3 during the period of quarantine and acclimatization and was also 2 to 3 during the experimental period, and the housing conditions were set to a temperature of 22±2° C., a relative humidity of 50.0±15.0%, a ventilation cycle of 10 to 20 times/hr, a light-dark cycle (a photoperiod) of 12 hr/day (07:00 to 19:00), and an illumination intensity of 150 to 300 Lux.
Pulmonary fibrosis was induced by injecting a bleomycin solution directly into the lungs via the trachea according to the intratracheal instillation (IT) method of Kremer, Laxer and Berkman et al. Specifically, C57BL/6J mice were anesthetized through inhalation with 70% N2O and 30% O2 gas and 1.5% isoflurane, and the skin of the anterior neck thereof was excised and the organs under the muscle thereof were exposed and then carefully excised using ophthalmic surgical scissors. 50 μL of a solution of bleomycin in distilled water was injected directly into the lungs all at once via the excised organ by use of a 1 mL syringe fitted with a 19-gauge injection needle having a blunt tip. Immediately after the injection, the excised skin of the anterior neck was sutured and the mice were allowed to recover from the anesthetic, and then housed in a general housing cage. The administration of bleomycin was performed using a visual instillobot, and bleomycin-HCl 40 μg/50 μL was administered once and a pulmonary fibrosis induction period of 12 days was set.
The compound of the present invention was used after dissolution in 30% HPCD aqueous solution (Formulation Example 5), and the dose for each individual was calculated based on the recent body weight thereof. 12 Days after the administration of bleomycin, the compound of the present invention was administered once a day (5 times a week) for 2 weeks. As a control, pirfenidone which is a therapeutic agent for idiopathic pulmonary fibrosis was administered in the same manner.
On 15 days after administration of the compound, the mice were sacrificed, and then the right lung of each mouse was dissected and the weight thereof was measured. […] In particular, it is noted that the inhibitory effect of the compound in the group administered at 10 mpk was the highest compared to that in the group administered at 50 or 100 mpk and was also higher than that in the group administered with pirfenidone 100 mpk.
The amounts of hydroxyproline (HP) and collagen in the dissected right lung were measured using a known method.
Histopathology collagen morphometry of the dissected left lung tissue was performed using a known method (calculating the area of collagen in an optical image obtained by Sirius red staining of the lung tissue sample).
The pathological conditions of the left lung tissue dissected using a known method were examined by H&E and Sirius Red staining. […] In particular, it is noted that the inhibitory effect of the compound in the group administered at 10 mpk was the highest compared to that in the groups administered at other concentrations.
In order to examine the effect of each treatment in this Experiment on the liver, the liver of each of the sacrificed mice was dissected, and the pathological conditions of the liver tissue were examined by H&E staining.

[2] = Concentration of compound in plasma and lung of bleomycin fibrotic mice; type: in vivo; conditions: 1 hour after final administration; pirfenidone 100 mpk, Compound 1 10-100 mpk PO
Procedure: The amounts of the compound present in the plasma and lung of each of the sacrificed mice (finally administered with each compound at 1 hour before sacrifice) were measured. […] If it is attempted to formulate the compound of the present invention in various manners, it is expected that the compound of the present invention can effectively treat fibrosis even at lower concentrations.

[3] = target: CYP2C9 (Homo sapiens, UniProt P11712)
[4] = physchem
Procedure: The compound of the present invention was added to phosphate buffer (pH 7.4) at a concentration of 1 mg/ml and stirred. After 16 hours, the sample was filtered through a filter, and the supernatant was analyzed by HPLC-UV, thereby determining the content of compound dissolved.

[5] = tested on: ONGHEPA1 cells; experiment: TGF-β-induced fibrosis of ONGHEPA1 cells (differentiation into myofibroblasts, phase contrast microscope); type: cell-based, rat; conditions: TGF-β 5 ng/ml, compound 50 μM in DMSO, 24 hours
Procedure: In order to examine the effect of a compound of the present invention against fibrosis, ONGHEPA1 cells (KCTC13086BP), which are mesenchymal stem cells (MSCs) derived from rat hepatic stellate cells (HSCs) and capable of proliferating indefinitely, were first used. Fibrosis of the ONGHEPA1 cells can be induced by a simple method of treating the cells with TGF-β (transforming growth factor beta) or PDGF (platelet-derived growth factor).
The ONGHEPA1 cells were seeded into medium, cultured for 24 hours, and then treated with TGF-β (5 ng/ml) to induce cell fibrosis. Alternatively, the cells were co-treated with TGF-β and the compound of the present invention (50 μM in DMSO) and cultured for 24 hours. Next, the degree of fibrosis of the cells, that is, the degree of differentiation into myofibroblasts, was examined with a phase contrast microscope (200×).
In this regard, the detailed experimental method followed the paper of Kim et al. (Han-Soo Kim, Jun-Hwan Kim, Ji Yong Lee, Young-Min Yoon, Ik-Hwan Kim, Ho-Sup Yoon, Byung-Soo Youn. Small molecule-mediated reprogramming of epithelial-mesenchymal transition thereby blocking fibrosis. bioRxiv preprint first posted online Feb. 16, 2017; doi: http://dx.doi.org/10.1101/106591).
The effects of the following comparative compounds against fibrosis were examined in the same manner as described in Experimental Example 1-1 above.

[6] = tested on: Rat liver microsomes; experiment: Metabolic stability in rat liver microsomes with NADPH; type: in vitro ADME; conditions: Rat liver microsomes
Procedure: (§1) The compound of the present invention was incubated with rat liver microsomes and NADPH, and then the rate of elimination of the compound was measured, thereby determining the intrinsic clearance value (CLint value) of the compound.

[7] = as above; type: in vitro ADME; conditions: rat, rat liver microsomes
Procedure: as §1

Chain of CYP2C9 (P11712 whole entry): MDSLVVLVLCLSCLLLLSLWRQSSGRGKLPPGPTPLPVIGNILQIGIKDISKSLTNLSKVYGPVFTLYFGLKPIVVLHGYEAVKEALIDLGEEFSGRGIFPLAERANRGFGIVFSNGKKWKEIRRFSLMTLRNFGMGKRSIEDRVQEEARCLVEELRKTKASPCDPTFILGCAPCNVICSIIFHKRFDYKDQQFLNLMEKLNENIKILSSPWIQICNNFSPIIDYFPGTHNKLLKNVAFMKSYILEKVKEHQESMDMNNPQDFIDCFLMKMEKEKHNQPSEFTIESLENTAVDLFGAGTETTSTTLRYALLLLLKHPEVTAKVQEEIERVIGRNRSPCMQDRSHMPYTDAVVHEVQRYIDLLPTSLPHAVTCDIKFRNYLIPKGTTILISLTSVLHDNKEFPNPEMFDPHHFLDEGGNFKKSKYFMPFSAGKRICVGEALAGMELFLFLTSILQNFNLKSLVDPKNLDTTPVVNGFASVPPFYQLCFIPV

COc1ccc(-c2cc(=O)c3c(O)c(OC)c(OCCN4CCNC(=O)C4)cc3o2)cc1OC [Compound 1, 4-(2-((2-(3,4-dimethoxyphenyl)-5-hydroxy-6-methoxy-4-oxo-4H-chromen-7-yl)oxy)ethyl)piperazin-2-one]
Protection Collagen % ([1]; 10 mpk PO): 59%
Mean Collagen % (histopathology collagen morphometry, left lung) ([1]; 10 mpk PO): 2.8%
inhibitory effect on right lung weight, comparison of dose groups ([1]; 10 mpk compared to 50 or 100 mpk and pirfenidone 100 mpk): the highest
inhibitory effect on lung fibrosis symptoms, comparison of dose groups ([1]; 10 mpk compared to other concentrations): the highest
Protection Collagen % ([1]; 50 mpk PO): 66%
Mean Collagen % (histopathology collagen morphometry, left lung) ([1]; 50 mpk PO): 2.4%
Protection Collagen % ([1]; 100 mpk PO): 59%
Mean Collagen % (histopathology collagen morphometry, left lung) ([1]; 100 mpk PO): 2.8%
amount of collagen in right lung ([1]; bleomycin mice, 10-100 mpk PO): significantly inhibited this increase
amount of hydroxyproline (HP) in right lung ([1]; bleomycin mice, 10-100 mpk PO): significantly inhibited this increase
fibrosis symptoms of left lung tissue, H&E and Sirius Red staining ([1]; bleomycin mice, 10-100 mpk PO): significantly inhibited such fibrosis symptoms
increase of collagen in left lung tissue, morphometry (in words) ([1]; bleomycin mice, 10-100 mpk PO): significantly inhibited this increase
increase in the right lung weight ([1]; bleomycin mice, 10-100 mpk PO in 30% HPCD, once a day 5 times a week for 2 weeks): significantly inhibited
pathological condition of liver tissue, H&E staining ([1]; bleomycin mice, 50 mpk): showed hepatotoxic symptoms
pathological condition of liver tissue, H&E staining ([1]; bleomycin mice, 100 mpk): showed hepatotoxic symptoms
inhibitory effect on collagen, comparison of dose groups ([1]; group administered at 100 mpk): highest
inhibitory effect on hydroxyproline, comparison of dose groups ([1]; group administered at 100 mpk): highest
pathological condition of liver tissue, H&E staining ([1]; mouse, in vivo, 10 mg/kg): showed the same condition as that of normal liver tissue
concentration of the compound in the lung [2]: relatively very low
concentration of the compound in the plasma [2]: relatively very low
inhibitory activity against CYP2C9 (in words) [3]: slight inhibitory activity
solubility in the buffer (in words) ([4]; pH 7.4): lower than that of caffeine, but higher than that of diethyl stilbesterol
solubility at 16 h ([4]; pH 7.4, aqueous buffer, thermodynamic from solid): 9.59 µg/mL (≈ 20.4 µM)
degree of fibrosis of the cells (differentiation into myofibroblasts) [5]: showed no fibrosis symptom
Clearance value [6]: Moderate
metabolic stability (in words) ([6]; NADPH): metabolically stable such that it could be comparable with atenolol
microsomal CLint ([7]; read-out: CL int): 19.4 µL/min/mg
half-life ([7]; read-out: t½): 1.19 h
